Data set [1] in a line: WST-1 cell viability, normal HME-1 cells. The data set is classed as cell-based, human. The following applies: human. The method, boiled down: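 Viability was measured by WST-1 absorbance 4 h after reagent addition, expressed relative to non-treated cells. Beforehand, overnight-attached cells had been treated for seventy-two hours with ten-point 1:5 dilution series and washed with PBS. IC50 values came from four-parameter sigmoidal fitting.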

Data set [2] has as its system LS 174T cells. The experiment in a line: WST-1 cell viability, LS 174T colorectal cancer cells. The data set is classed as cell-based. The following applies: for SI = HME-1 IC50/cancer IC50: LS 174T (CrC) vs HME-1 (Table 3); for IC50: WST-1 (Table 1), read-out: Absolute IC50. The procedure:
(§1) All commercial cell lines were purchased at ATCC (LGC Standards SARL, France). Cells were seeded in 96-well plates according to their optimal seeding density, varying between 5.000 and 10.000 cells/well. After attachment overnight, 10-point serial titrations (1:5) were prepared in their equivalent complete media as recommended by ATCC, starting from the 10 mM stock solutions. For doxorubicin comprising prodrugs dilutions started from 100 μM, while for the parent compound doxorubicin dilutions started at 10 μM. […] Seventy-two hours later, compounds were removed together with the supernatants and cells were washed once with PBS to remove excess drugs.
(§2) The WST-1 assay for cell proliferation and viability (Roche, Switzerland) was performed according to manufacturer's protocol. Absorbances were measured at 4 hrs using a Perkin Elmer Ensight multiplate reader, equipped with Kaleido 2.0 software (Perkin Elmer, USA). Cell viability was expressed as a percentage compared to non-treated cells. Absolute IC50 values were extrapolated from a non-linear fitting following the Sigmoidal-4PL regression method using Graphpad Prism 7.0. Likewise, maximal efficacy was determined as 100% minus the cell viability determined when cells are incubated in the presence of a compound. For instance, if 20% of the cells survive incubation in the presence of a compound, then the maximal efficacy of that compound is 100%-20%=80%.
(§3) Selectivity indices (SI) were defined as the ratio of the concentration of drug required to kill 50% of the cells in normal (control, non-cancer) cells, divided by the concentration required to exert the same efficacy in tumor cells: SI=IC50 (control cell)/IC50 (cancer cell), or SI=^HME-1IC50/cancer IC50.

Data set [3] concerns HCT-116 cells. The experiment in a line: WST-1 cell viability, HCT-116 colorectal cancer cells. The data set is classed as cell-based. The conditions noted are these: for SI = HME-1 IC50/cancer IC50: HCT-116 (CrC) vs HME-1 (Table 3); for IC50: WST-1 (Table 1), read-out: Absolute IC50. The procedure:
as §1, §2, §3

The subject of data set [4] is MDA-MB-468 cells. The experiment in a line: WST-1 cell viability, MDA-MB-468 triple negative breast cancer cells. The conditions noted are these: for SI = HME-1 IC50/cancer IC50: MDA-MB-468 (TNBC) vs HME-1 (Table 3); for IC50: WST-1 (Table 1), read-out: Absolute IC50. It is filed as cell-based. On the procedure: as §1, §2, §3
For data set [5], the system named is A2780 cells. The experiment in a line: WST-1 cell viability, A2780 ovarian cancer cells. It is filed as cell-based. The conditions noted are these: for SI = HME-1 IC50/cancer IC50: A2780 (OvC) vs HME-1 (Table 3); for IC50: WST-1 (Table 1), read-out: Absolute IC50. On the procedure: as §1, §2, §3
Data set [6] has as its system NCI-1299 cells. The experiment in a line: WST-1 cell viability, NCI-H1299 lung cancer cells. The data set is classed as cell-based. The following applies: for SI = HME-1 IC50/cancer IC50: NCI-1299 (NSCLC) vs HME-1 (Table 3); for IC50: WST-1 (Table 1), read-out: Absolute IC50. On the procedure: as §1, §2, §3
For data set [7], the system named is LS-174T colorectal tumor cells xenografted in Nude NMRI mice. The experiment in a line: In vivo activity on LS-174T colorectal cancer xenograft. Also noted: species or system mouse. The following applies: twice per week. On the procedure: The in vivo efficacy of PhAc-ALLP-Dox was tested in a mouse model of colorectal cancer. LS-174T colorectal tumor cells were xenografted in Nude NMRI mice. In total, 30 adult (9-10 weeks old) nude female NMRI mice (Janvier, France) were subjected to subcutaneous (SC) tumor cell grafting in the right flank. In total, 2×10^6 LS-174T cells resuspended in PBS were injected in 200 uL final volume. As soon as the tumors were palpable and reached the volume of 200 mm3 the treatment was started. […]
Treatments were performed twice per week for a total of four tail vein administrations/injections (on days 1, 4, 7 and 10). […] During the experiment, tumor volume was measured two times a week and was assessed three-dimensionally with a digital caliper (Mitutoyo, Illinois) using the following formula: […]
Tumor growth inhibition (TGI) expressed as percentage vs control was calculated as follows: % TGI=(1−{Tt/T0/Ct/C0}/1−{C0/Ct})×100 where Tt and T0 are the individual tumor volume of treated mouse X at times t and 0 respectively, Ct and C0 are the mean tumor volume of the control group at times t and 0 respectively.

Data set [8] concerns U87 MG glioblastoma cells subcutaneously implanted in nude NMRI mice. The experiment in a line: In vivo activity of PhAc-ALLP-Dox on U87 MG glioblastoma xenograft. On the set-up: species or system mouse. The following applies: once per week. The procedure: The in vivo efficacy of PhAc-ALLP-Dox was tested in a mouse GBM model. U87 MG glioblastoma cells were subcutaneously (SC) implanted in nude NMRI mice. In total, 32 adult (9-10 weeks old) nude female NMRI mice (Janvier, France) were subjected to SC tumor cell grafting in the right flank. In total, 5×10^6 U87 MG cells resuspended in PBS plus Matrigel (1:1) were injected in 200 uL final volume. As soon as the tumors were palpable and reached the volume of 200 mm3 the treatment was started. At day zero, mice were randomly divided into 4 groups, based on the tumor volume, in order to have the following experimental sub-cohorts: • control group receiving the vehicle (PBS pH7.2) with a dose of 5 ml/kg, intravenously (iv), once per week (QW); • PhAc-ALLP-Dox (30 mg/kg iv, QW); • PhAc-ALGP-Dox (154 mg/kg iv, QW); • Dox (5 mg/kg iv, QW).
Treatments were performed once per week for a total of four tail vein administrations/injections (on days 1, 7, 14 and 21). One extra week of observation followed the active treatment phase. During the experiment, tumor volume was measured two times a week and was assessed three-dimensionally with a digital caliper (Mitutoyo, Illinois) using the following formula:
V=4/3π×[(d/2)^2×(D/2)], where d is the minor tumor axis and D is the major tumor axis.

Where two headings read alike, the source gives them in different places. Where a SMILES comes first, the peptide text is derived from it. Bounds are passed on as bounds.

For `COc1cccc2c1C(=O)c1c(O)c3c(c(O)c1C2=O)C[C@@](O)(C(=O)CO)C[C@@H]3O[C@H]1C[C@H](NC(=O)[C@@H]2CCCN2C(=O)[C@H](CC(C)C)NC(=O)[C@H](CC(C)C)NC(=O)[C@H](C)NC(=O)CP(=O)(O)O)[C@H](O)[C@H](C)O1` [PhAc-ALLP-Dox, PhAc-ALLP-Doxorubicin] (HELM PEPTIDE1{[O=C(CP(=O)(O)O)[*:2]].A.L.L.P.[COc1cccc2c1C(=O)c1c(O)c3c(c(O)c1C2=O)C[C@@](O)(C(=O)CO)C[C@@H]3O[C@H]1C[C@H](N[*:1])[C@H](O)[C@H](C)O1]}$$$$V2.0), the cytotoxicity at 72 h, 100 µM in data set [1] (HME-1 normal cells, 72 hrs, WST-1 (Table 2), read-out: Maximal efficacy, cytotoxicity (%) at 100 μM) stood at 59.5%. Also, the “SI = HME-1 IC50/cancer IC50” value in data set [2] is on record as 1514.9; in data set [3], 3.34; in data set [4], 20.94; in data set [5], 701.33; in data set [6], 27.39. The concentration for half-maximal inhibition (IC50) in data set [2] (LS 174T (CrC), 72 hrs) was found to be 20 nM; in data set [3] (HCT-116 (CrC), 72 hrs) it was 11100 nM; in data set [4] (MDA-MB-468 (TNBC), 72 hrs), 1760 nM; in data set [5] (A2780 (OvC), 72 hrs), 50 nM; in data set [6] (NCI-1299 (NSCLC), 72 hrs), 1350 nM. For the same compound, the “Maximal efficacy, cytotoxicity (%) at 100 μM” value in data set [2] (LS 174T (CrC), 72 hrs, WST-1 (Table 2)) stood at 54.86%; in data set [3] (HCT-116 (CrC), 72 hrs, WST-1 (Table 2)) it was 67.49%; in data set [4] (MDA-MB-468 (TNBC), 72 hrs, WST-1 (Table 2)) it was 87.18%; in data set [5] (A2780 (OvC), 72 hrs, WST-1 (Table 2)), 90.59%; in data set [6] (NCI-1299 (NSCLC), 72 hrs, WST-1 (Table 2)), 70.15%. Further, the Tolerability entry in data set [7] (10 mg/kg and 30 mg/kg iv) is listed as “mice did tolerate both doses”. The “Tumor volume compared to the untreated control group” value in data set [7] (30 mg/kg iv, four tail vein administrations) is recorded as “significantly reduced the tumor volume”; in data set [8] (30 mg/kg iv, four administrations), “importantly reduced the tumor volume”.

With `COc1cccc2c1C(=O)c1c(O)c3c(c(O)c1C2=O)C[C@@](O)(C(=O)CO)C[C@@H]3O[C@H]1C[C@H](N)[C@H](O)[C@H](C)O1` [Doxorubicin, reference compound], in data set [1], the cytotoxicity at 72 h, 100 µM is 96.5%. For the same compound, the half-inhibitory concentration (IC50) was 10 nM in data set [2] (Homo sapiens, LS174T, LS 174T (CrC), 72 hrs); 120 nM in data set [3] (Homo sapiens, HCT-116 (CrC), 72 hrs); under 10 nM in data set [4] (Homo sapiens, MDA-MB-468 (TNBC), 72 hrs); under 10 nM in data set [5] (Homo sapiens, A2780 (OvC), 72 hrs); 30 nM in data set [6] (Homo sapiens, NCI-H1299, NCI-1299 (NSCLC), 72 hrs). Further, the cytotoxicity at 100 µM in data set [2] (Homo sapiens, LS174T, LS 174T (CrC), 72 hrs, WST-1 (Table 2), read-out: Maximal efficacy, cytotoxicity (%) at 100 μM) worked out at 93.7%; in data set [3] (Homo sapiens, HCT-116 (CrC), 72 hrs, WST-1 (Table 2), read-out: Maximal efficacy, cytotoxicity (%) at 100 μM) it was 93.5%; in data set [4] (Homo sapiens, MDA-MB-468 (TNBC), 72 hrs, WST-1 (Table 2), read-out: Maximal efficacy, cytotoxicity (%) at 100 μM) it was 95.5%; in data set [5] (Homo sapiens, A2780 (OvC), 72 hrs, WST-1 (Table 2), read-out: Maximal efficacy, cytotoxicity (%) at 100 μM) it was 96%; in data set [6] (Homo sapiens, NCI-H1299, NCI-1299 (NSCLC), 72 hrs, WST-1 (Table 2), read-out: Maximal efficacy, cytotoxicity (%) at 100 μM) it was 92.9%. Also, the “SI = HME-1 IC50/cancer IC50” value in data set [2] amounted to 4.47; in data set [3], 0.36; in data set [4], 12.64; in data set [5], 9.15; in data set [6], 1.33. The Tumor growth entry in data set [8] (5 mg/kg iv) is listed as “significantly reduced tumor growth”.

The record behind these values is patent publication US20240299562A1 (priority 2020, published 2024).
